Assay results as given in patent publication US9096591B2, “Tetracyclic compounds” (Medivation Technologies, Inc., priority 2007, dated 2015).

Experiments:
[1] = molecular target: T1, Serotonin (5-Hydroxytryptamine) 5-HT7 (Homo sapiens, UniProt P34969); test: Serotonin 5-HT7 radioligand binding ([3H]LSD); design: Inhibition of ligand binding, Ser. 5-HT7: concentration or dose not given beside the values; settings: percent inhibition of specific binding
T1 construct: expressed in transfected cells; host or cells: CHO cells
Procedure: Lysergic acid diethylamide (LSD) for 2 hours at 25° C. […] Receptor proteins were filtered and washed, the filters were then counted to determine [^3H]LSD specifically bound. […] Biochemical assay results are presented as the percent inhibition of specific binding in Table 6.

[2] = tested on: adrenergic receptors α1D, α2A, α2B; serotonin receptor 5-HT6; dopamine receptor D2L; test: Classification of compounds (Type 1-4) from receptor binding and neurite outgrowth

T1 sequence (P34969 whole entry): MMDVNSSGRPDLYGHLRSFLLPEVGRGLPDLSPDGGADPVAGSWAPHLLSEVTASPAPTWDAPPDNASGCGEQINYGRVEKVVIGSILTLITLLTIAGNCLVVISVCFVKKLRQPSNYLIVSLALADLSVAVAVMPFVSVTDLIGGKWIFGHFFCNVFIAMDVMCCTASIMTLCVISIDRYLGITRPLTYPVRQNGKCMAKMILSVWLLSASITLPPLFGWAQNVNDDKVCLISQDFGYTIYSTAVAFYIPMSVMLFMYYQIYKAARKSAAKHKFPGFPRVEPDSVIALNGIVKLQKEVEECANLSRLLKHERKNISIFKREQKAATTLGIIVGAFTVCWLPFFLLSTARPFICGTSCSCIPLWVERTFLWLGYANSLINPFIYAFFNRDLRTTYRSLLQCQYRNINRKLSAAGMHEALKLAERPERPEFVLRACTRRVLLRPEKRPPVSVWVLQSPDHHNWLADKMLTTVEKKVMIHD

## CN1CCc2c(c3cc(Cl)ccc3n2CCc2ccc(C(F)(F)F)nc2)C1 [Compound 250]
[1]
  Inhibition of ligand binding, Ser. 5-HT7: 93%
[2]
  compound type (classification by receptor binding profile and neurite outgrowth): Type one
